Test results from US20130203635A1, “NUCLEIC ACID LIGATION METHOD” (priority 2012, published 2013).
Entries after “also recorded” stand apart in the source; their conditions may differ.

How the values were obtained:
[1] = system: Escherichia coli RtcB ligase; test: E. coli RtcB RNA ligation assay (3′-P and 5′-OH termini, urea-polyacrylamide gel); type: biochemical; settings: for use as cofactor in ligation of 3′-P and 5′-OH RNA termini: in place of GTP, tRNA anticodon stem-loop mimic substrate, with Mn2+ (FIG. 1B, 1C)
From the text: FIG. 1. […] (A) RNA ligation substrate that mimics a broken tRNA anti-codon. FAM label allows visualization in a urea-polyacrylamide gel. […] (B) Cofactor- and metal-dependence of ligation. Reactions contain manganese, except in the “—Mn^2+” lane. The lane labeled “C78A” is a ligation reaction performed with RtcB that has a C78A substitution within the predicted metal binding site. (C) Ligation assays using GTP analogues as cofactors. […] (E) RNA termini specificity of RtcB. Modifications to the ligatable ends of the tRNA mimic substrate were made as indicated and tested in ligation reactions.
To assay for ligation, we initially used two single-stranded RNA (ssRNA) oligos that were each 10 nucleotides in length. The 5′ RNA fragment was labeled with 6-carboxyfluorescein (FAM) at its 5′ end and phosphorylated at its 3′ end. The 3′ RNA fragment had hydroxyl groups at each end. We intended to convert the 3′-P into a 2′,3′-cyclic phosphate by incubation with RtcA and ATP, so as to produce a suitable substrate for RtcB.
These reactions were performed with high concentrations of GTP analogues to ensure saturation of RtcB.
We investigated the RNA termini structure requirements for ligation by modifying the ends of our tRNA mimic substrate. First, all four combinations of either a phosphate or hydroxyl group at each termini were sampled while maintaining a 2′-OH on the 5′ side of the ligation junction. […] Next, the importance of the terminal ribose 2′-OH for ligation was probed by replacing this hydroxyl group with either hydrogen (2′-H) or fluorine (2′-F).

[2] = system: P. horikoshii RtcB; test: P. horikoshii RtcB RNA ligation assay; type: biochemical, Pyrococcus horikoshii; settings: for use as cofactor in RNA ligation with Archease: Archease 0.25 μM, NTP 100 μM, RtcB 5 μM (FIG. 10B, 11B)
From the text: FIG. 2. P. horikoshii RtcB catalyzed ligation of 3′-P and 5′-OH RNA termini. P. horikoshii RtcB requires Mn^2+ and GTP for ligation. […] The lane labeled “2′-deoxy” is a ligation reaction using the tRNA mimic substrate but with a 3′-P/2′-H termini on its 5′ fragment. The lane labeled “C98A” is a ligation reaction with RtcB that has a C98A substitution within the predicted metal-binding site.
RtcB from the archaeal domain of life likewise catalyzes the GTP-dependent ligation of 3′-P and 5′-OH RNA termini. The crystal structure of RtcB from a hyperthermophilic archaeon, Pyrococcus horikoshii, was determined as part of a structural genomics project (21). […] The P. horikoshii homologue has 29% amino-acid sequence identity to E. coli RtcB, and 49% identity to the human ligase (HSPC117). To investigate if RtcB from archaea catalyzes the GTP-dependent ligation of 3′-P and 5′-OH RNA termini, we synthesized a P. horikoshii rtcB gene and produced soluble enzyme in E. coli. […] The P. horikoshii ligase also required a 2′-OH on the terminal nucleotide of the 5′ RNA fragment.
RNA Ligation Assay. Ligation assays with single-stranded RNA as the substrate used two 10-nt oligonucleotides that were synthesized by Integrated DNA Technologies (15). […] The 3′ RNA fragment had hydroxyl groups on each end. The sequence of the 5′ fragment was FAM-5′-AAAUAACAAA-3′-P (SEQ ID NO:6) and the sequence of the 3′ RNA fragment was 5′-AAAUAACAAA-3′ (SEQ ID NO:6). Ligation reactions were performed in 10-μL solutions consisting of 50 mM Bis-Tris buffer, pH 7.0, containing NaCl (300 mM), […] (0.25 mM), GTP (100 μM), each RNA fragment (1 μM), and RtcB (10 μM). Reaction mixtures were incubated at 70° C. for 1 h prior to the addition of water (40 μL) and RNA-loading buffer (50 μL). Reaction mixtures were subjected to electrophoresis and visualized as previously described in the previous examples.
The ability of Archease to activate P. horikoshii RtcB was tested in reactions using ssRNA substrates. Ligation reactions included a 10-nt 5′ RNA fragment and a 10-nt 3′ RNA fragment. […] The 3′ RNA fragment had hydroxyl groups on each end. The sequence of the 5′ fragment was FAM-5′-AAAUAACAAA-3′-P (SEQ ID NO:6) and the sequence of the 3′ RNA fragment was 5′-AAAUAACAAA-3′ (SEQ ID NO:6). Ligation reactions were performed in 50-μL solutions consisting of 50 mM Tris-HCl buffer, pH 7.4, containing NaCl (300 mM), MnCl2 (0.25 mM), GTP (100 μM), RNA fragments (100 pmol of each), and P. horikoshii RtcB (5 μM).
Ligation reaction mixtures were set up as described above, and each was divided into two tubes. No Archease was added to one set of reaction mixtures (FIG. 10A), and Archease was added to a concentration of 0.25 μM to the other set (FIG. 10B). […] Archease had no effect on ligation reactions that used 2′-F RNA.
We tested the ability of Archease to enable RtcB to use cofactors other than GTP or dGTP. Ligation reaction mixtures with RtcB were set up as described above, and each was divided into two tubes. No Archease was added to one set of reaction mixtures (FIG. 11A), and Archease was added to a concentration of 0.25 μM to the other set (FIG. 11B). The various NTPs were included at a concentration of 100 μM.

Molecule	use as cofactor in ligation of 3′-P and 5′-OH RNA termini [1]	other results
Nc1nc2c(ncn2C2OC(COP(=O)(O)CP(=O)(O)OP(=O)(O)O)C(O)C2O)c(=O)[nH]1 (stereo not drawn) [GpCpp, guanosine 5′-(α,β-methyleno)-triphosphate]	unreactive; also recorded: did not enable the ligation to proceed	–
Nc1nc2c(ncn2[C@H]2C[C@H](O)[C@@H](COP(=O)(O)OP(=O)(O)OP(=O)(O)O)O2)c(=O)[nH]1 [dGTP, deoxyguanosine-5′-triphosphate]	–	use as cofactor in RNA ligation with Archease [2]: enables RtcB to use dGTP efficiently as a cofactor; use as cofactor in RNA ligation ([2]; RtcB alone, no Archease, ssRNA 10-nt substrates): ligation activity is reduced substantially; also recorded: at a rate that is much lower than that with GTP; also recorded: ligation efficiency is reduced greatly
Nc1nc2c(ncn2[C@@H]2O[C@H](COP(=O)(O)OP(=O)(O)OP(O)(O)=S)[C@@H](O)[C@H]2O)c(=O)[nH]1 [GTPγS]	enabled ligation, albeit at lower efficiency than did GTP	–
Nc1nc2c(ncn2[C@@H]2O[C@H](COP(=O)(O)OP(=O)(O)NP(=O)(O)O)[C@@H](O)[C@H]2O)c(=O)[nH]1 [GppNHp]	enabled ligation, albeit at lower efficiency than did GTP	–
NC(=O)c1ccc[n+]([C@@H]2O[C@H](COP(=O)([O-])OP(=O)(O)OC[C@H]3O[C@@H](n4cnc5c(N)ncnc54)[C@H](O)[C@@H]3O)[C@@H](O)[C@H]2O)c1 [NAD^+]	unable to substitute for GTP	–
Nc1nc2c(ncn2[C@@H]2O[C@H](COP(=O)(O)OP(=O)(O)CP(=O)(O)O)[C@@H](O)[C@H]2O)c(=O)[nH]1 [GppCp]	enabled ligation, albeit at lower efficiency than did GTP	–
O=c1ccn([C@@H]2O[C@H](COP(=O)(O)OP(=O)(O)OP(=O)(O)O)[C@@H](O)[C@H]2O)c(=O)[nH]1 [UTP]	unable to substitute for GTP	use as cofactor in RNA ligation with Archease [2]: not
Nc1nc2c(ncn2[C@@H]2O[C@H](COP(=O)(O)O)[C@@H](O)[C@H]2O)c(=O)[nH]1 [GMP]	allowed for low levels of ligation	–
Nc1nc2c(ncn2[C@@H]2O[C@H](COP(=O)(O)OP(=O)(O)O)[C@@H](O)[C@H]2O)c(=O)[nH]1 [GDP]	allowed for low levels of ligation	–
Nc1ccn([C@@H]2O[C@H](COP(=O)(O)OP(=O)(O)OP(=O)(O)O)[C@@H](O)[C@H]2O)c(=O)n1 [CTP]	unable to substitute for GTP	use as cofactor in RNA ligation with Archease [2]: not
C98A: P. horikoshii RtcB with Cys98→Ala98 substitution within predicted metal-binding site (protein, UniProt O59245 1-871, looked up, variant C98A) MVVPLKRIDKIRWEIPKFDKRMRVPGRVYADEVLLEKMKNDRTLEQATNVAMLPGIYKYSIVMPDGHQGYGFPIGGVAAFDVKEGVISPGGIGYDINALAPGTRVLTEHGYWLKIEEMPEKFKLQRLRVYNIEEGHNDFSKVVFVAEREVGSEEKAIRIVTESGKVIEGSEDHPVLTPEGYVYLRNVKEGDYILVYPFEGVPYEEKKGVILDESAFEGEDPQVVKFLRERNLIPLQWKDPKVGILARILGFALANGYISENDNLTFHGKEEVLREVRKDLEELGIEAIVAEEDKLKVTSREFAFLLEKLGMAHDSIPEWIIEGPLWIKRNFLAGLFGANGSIVEFKGDVPLPITLTHSRELLNDVSRILEGFKVRAKIKMGKNGSYQLVIEDEDSIRNFLGRINYEYDPEKKARGLIAYAYLKFKELMKGNLMTFEEFARDRGYEGGFVAEKVIEVKSVKPEYDKFYDIGVYHSAHNFIANGIVVHNCGVRLIRTNLTEKEVRPRIKQLVDTLFKNVPSGVGSQGRIKLHWTQIDDVLVDGAKWAVDNGYGWERDLERLEEGGRMEGADPEAVSQRAKQRGAPQLGSLGSGNHFLEVQVVDKIFDPEVAKAYGLFEGQVVVMVHTGSRGLGHQVASDYLRIMERAIRKYRIPWPDRELVSVPFQSEEGQRYFSAMKAAANFAWANRQMITHWVRESFQEVFKQDPEGDLGMDIVYDVAHNIGKVEEHEVDGKRVKVIVHRKGATRAFPPGHEAVPRLYRDVGQPVLIPGSMGTASYILAGTEGAMKETFGSTCHGAGRVLSRKAATRQYRGDRIRQELLNRGIYVRAASMRVVAEEAPGAYKNVDNVVKVVSEAGIAKLVARMRPIGVAKG	–	ligase activity of RtcB variant ([2]; alanine substitution): abolishes ligase activity
C78A: E. coli RtcB with Cys78→Ala78 substitution within predicted metal-binding site (protein, UniProt P46850 1-408, looked up, variant C78A) RNA-splicing ligase RtcB: MNYELLTTENAPVKMWTKGVPVEADARQQLINTAKMPFIFKHIAVMPDVHLGKGSTIGSVIPTKGAIIPAAVGVDIGAGMNALRTALTAEDLPENLAELRQAIETAVPHGRTTGRCKRDKGAWENPPVNVDAKWAELEAGYQWLTQKYPRFLNTNNYKHLGTLGTGNHFIEICLDESDQVWIMLHSGSRGIGNAIGTYFIDLAQKEMQETLETLPSRDLAYFMEGTEYFDDYLKAVAWAQLFASLNRDAMMENVVTALQSITQKTVRQPQTLAMEEINCHHNYVQKEQHFGEEIYVTRKGAVSARAGQYGIIPGSMGAKSFIVRGLGNEESFCSCSHGAGRVMSRTKAKKLFSVEDQIRATAHVECRKDAEVIDEIPMAYKDIDAVMAAQSDLVEVIYTLRQVVCVKG	–	ligase activity of RtcB variant ([1]; substitution within predicted metal-binding site): abolished ligase activity
Archease: Pyrococcus horikoshii Archease (SEQ ID NO:9; UniProt O59205), N-terminal hexahistidine tag (protein, listed as Pyrococcus horikoshii, N-terminal His6 tag) MKKWEHYEHTADIGIRGYGDSLEEAFEAVAIALFDVMVNVNKVEKKEVREIEVEAEDLEALLYSFLEELLVIHDIEGLVFRDFEVKIERVNGKYRLRAKAYGEKLDLKKHEPKEEVKAITYHDMKIERLPNGKWMAQLVPDI	–	effect of Archease on catalysis of RNA ligation by RtcB ([2]; Archease at concentrations lower than RtcB or RNA, GTP 100 μM (FIG. 9)): significantly enhances the catalytic activity of RtcB
